One data set deals with human OAT3 (Homo sapiens, UniProt Q8TCC7). The data set is described as follows: NC-152 transporter inhibition, OAT3. It counts as in vitro ADME. Conditions: in vitro cell test system. The source says: (§1) Microbiology Spectrum Supplementary materials
(§2) Table S 4Summary of initial in vitro assessments […]
(§3) whether rezafungin can induce CYP isoforms 1A2, 2B6, or 3A4. mRNA expression) of CYP1A2 and CYP2B6, and, in the case of […]
(§4) Abbreviations: ABC = ATP binding cassette; BCRP = breast cancer resistance protein; BSEP = bile salt export pump; CYP = cytochrome P450; MATE = multidrug and toxic compound extrusion; MDCK = Madin-Darby canine kidney; MDR = multidrug resistance protein; mRNA = messenger ribonucleic acid; OAT = organic anion transporter; OATP = organic anion transporter protein; OCT – organic cation transporter; OCTN = organic cation transporter novel; P-gp = P-glycoprotein; SLC = solute carrier.

Another data set has as its target human OCT2 (Homo sapiens, UniProt O15244). Put plainly: NC-152 transporter inhibition, OCT2. It counts as in vitro ADME. The conditions noted are these: in vitro cell test system.
From the text: as §1, §2, §3, §4

The next data set addresses human P-gp (Homo sapiens, UniProt P08183). The data set is described as follows: NC-152 transporter inhibition, P-gp. It counts as in vitro ADME. The conditions noted are these: in vitro cell test system. An excerpt: Abbreviations: ABC = ATP binding cassette; BCRP = breast cancer resistance protein; BSEP = bile salt export pump; CYP = cytochrome P450; MATE =
multidrug and toxic compound extrusion; MDCK = Madin-Darby canine kidney; MDR = multidrug resistance protein; mRNA = messenger ribonucleic acid;
OAT = organic anion transporter; OATP = organic anion transporter protein; OCT – organic cation transporter; OCTN = organic cation transporter novel; P-gp =
P-glycoprotein; SLC = solute carrier.

For data set [1], the target named is T1, CYP2D6 (Homo sapiens, UniProt P10635). The data set is described as follows: NC-153 time-dependent inhibition in human liver microsomes, CYP2D6. It counts as in vitro ADME. The conditions noted are these: 0.1 to 25 μM.
T1 sequence (P10635 whole entry): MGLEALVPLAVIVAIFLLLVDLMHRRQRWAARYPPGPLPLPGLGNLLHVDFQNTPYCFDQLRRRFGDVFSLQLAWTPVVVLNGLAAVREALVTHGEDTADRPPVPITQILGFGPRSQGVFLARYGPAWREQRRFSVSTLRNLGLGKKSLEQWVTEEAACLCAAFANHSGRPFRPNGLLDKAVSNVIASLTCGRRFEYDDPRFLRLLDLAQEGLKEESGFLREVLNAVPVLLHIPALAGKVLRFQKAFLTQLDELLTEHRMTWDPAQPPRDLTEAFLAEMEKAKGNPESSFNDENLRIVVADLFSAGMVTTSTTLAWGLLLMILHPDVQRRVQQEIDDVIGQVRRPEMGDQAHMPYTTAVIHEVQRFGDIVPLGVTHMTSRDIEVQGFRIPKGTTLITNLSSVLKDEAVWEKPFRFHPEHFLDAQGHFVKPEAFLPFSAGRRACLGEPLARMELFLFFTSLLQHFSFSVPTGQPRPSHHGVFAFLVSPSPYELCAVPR
From the text: as §1, §2, §3, §4

For another data set, the target named is T2, CYP2C8 (Homo sapiens, UniProt P10632).
T2 sequence (P10632 1-490): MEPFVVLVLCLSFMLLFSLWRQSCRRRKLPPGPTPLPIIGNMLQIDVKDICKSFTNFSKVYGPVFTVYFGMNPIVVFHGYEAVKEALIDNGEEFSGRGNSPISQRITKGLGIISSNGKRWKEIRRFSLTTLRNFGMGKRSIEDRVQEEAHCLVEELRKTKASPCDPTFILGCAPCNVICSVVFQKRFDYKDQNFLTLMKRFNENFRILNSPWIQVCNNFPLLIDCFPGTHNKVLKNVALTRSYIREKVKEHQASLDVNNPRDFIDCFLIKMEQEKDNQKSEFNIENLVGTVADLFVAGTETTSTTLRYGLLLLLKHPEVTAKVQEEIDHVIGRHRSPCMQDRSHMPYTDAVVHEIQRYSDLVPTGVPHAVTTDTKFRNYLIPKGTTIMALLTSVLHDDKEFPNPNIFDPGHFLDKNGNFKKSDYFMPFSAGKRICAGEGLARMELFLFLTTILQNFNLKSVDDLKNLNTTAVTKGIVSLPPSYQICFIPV
Put plainly: NC-012 CYP450 inhibition screening, recombinant CYP2C8. It counts as in vitro ADME. The conditions noted are these: fluorogenic substrate, recombinant human CYP.
From the text: as §1, §2, §3, §4

Another data set deals with OCTN2 (Homo sapiens, UniProt O76082). The data set is described as follows: NC-160 substrate interaction, OCTN2. It counts as in vitro ADME. Conditions: uptake SLC transporter.
Chain of OCTN2 (O76082 whole entry): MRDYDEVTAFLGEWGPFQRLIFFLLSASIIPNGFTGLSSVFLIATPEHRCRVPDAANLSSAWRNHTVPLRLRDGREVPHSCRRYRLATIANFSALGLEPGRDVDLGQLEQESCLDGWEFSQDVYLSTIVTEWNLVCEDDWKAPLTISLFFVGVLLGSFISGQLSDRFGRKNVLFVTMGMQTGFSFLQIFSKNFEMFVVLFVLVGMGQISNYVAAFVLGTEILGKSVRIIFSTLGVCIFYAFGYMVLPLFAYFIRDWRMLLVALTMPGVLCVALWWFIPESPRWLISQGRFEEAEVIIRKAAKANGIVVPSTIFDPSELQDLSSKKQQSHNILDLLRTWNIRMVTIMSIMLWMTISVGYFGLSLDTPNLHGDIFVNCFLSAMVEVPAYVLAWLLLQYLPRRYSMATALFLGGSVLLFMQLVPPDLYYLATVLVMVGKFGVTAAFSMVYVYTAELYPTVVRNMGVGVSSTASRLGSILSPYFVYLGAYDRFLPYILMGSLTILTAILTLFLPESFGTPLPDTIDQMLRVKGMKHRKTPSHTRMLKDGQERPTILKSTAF
From the text: as §1, §2, §3, §4

The target in a further data set is CYP1A2 (Homo sapiens, UniProt P05177). The conditions noted are these: human liver microsomes; 0.1 to 25 μM; NC-153.
Chain of CYP1A2 (P05177 whole entry): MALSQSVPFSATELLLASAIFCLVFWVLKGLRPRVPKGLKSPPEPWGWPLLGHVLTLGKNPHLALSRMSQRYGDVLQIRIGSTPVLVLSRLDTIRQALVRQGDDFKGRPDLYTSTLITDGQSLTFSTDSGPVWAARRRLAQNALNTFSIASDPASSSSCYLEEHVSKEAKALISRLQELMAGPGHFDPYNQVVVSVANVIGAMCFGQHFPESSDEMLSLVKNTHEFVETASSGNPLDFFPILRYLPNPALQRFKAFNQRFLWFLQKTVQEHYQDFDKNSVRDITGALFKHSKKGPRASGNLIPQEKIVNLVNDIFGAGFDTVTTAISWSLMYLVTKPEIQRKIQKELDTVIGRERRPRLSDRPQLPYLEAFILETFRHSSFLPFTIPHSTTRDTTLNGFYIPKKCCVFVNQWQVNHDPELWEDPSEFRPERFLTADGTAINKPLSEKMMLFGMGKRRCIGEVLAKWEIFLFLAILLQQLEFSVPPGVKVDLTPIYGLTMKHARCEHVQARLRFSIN
From the text: as §1, §2, §3, §4
(Liver microsomes are a subcellular fraction often used to study metabolism.)

In the next data set the target is CYP3A4 (Homo sapiens, UniProt P08684). The conditions noted are these: human liver microsomes; midazolam and testosterone as substrates; 0.1 to 25 μM; NC-153.
Chain of CYP3A4 (P08684 whole entry): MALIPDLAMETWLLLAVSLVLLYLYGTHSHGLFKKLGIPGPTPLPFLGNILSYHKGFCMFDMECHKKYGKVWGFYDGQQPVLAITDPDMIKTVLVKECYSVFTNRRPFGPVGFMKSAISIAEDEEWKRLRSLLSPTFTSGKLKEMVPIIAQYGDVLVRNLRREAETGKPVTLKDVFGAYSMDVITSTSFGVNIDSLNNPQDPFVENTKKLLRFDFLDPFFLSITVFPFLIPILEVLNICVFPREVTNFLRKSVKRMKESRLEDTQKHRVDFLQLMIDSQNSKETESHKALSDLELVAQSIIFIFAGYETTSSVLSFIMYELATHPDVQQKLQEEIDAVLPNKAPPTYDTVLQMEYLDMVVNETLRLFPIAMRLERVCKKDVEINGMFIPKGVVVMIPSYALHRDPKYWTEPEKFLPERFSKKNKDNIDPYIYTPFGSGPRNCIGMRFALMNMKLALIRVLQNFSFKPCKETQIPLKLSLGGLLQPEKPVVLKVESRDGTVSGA
From the text: as §1, §2, §3, §4

In data set [2] the target is T3, CYP2B6 (Homo sapiens, UniProt P20813). Conditions: human liver microsomes; 0.1 to 25 μM; NC-153.
T3 sequence (P20813 whole entry): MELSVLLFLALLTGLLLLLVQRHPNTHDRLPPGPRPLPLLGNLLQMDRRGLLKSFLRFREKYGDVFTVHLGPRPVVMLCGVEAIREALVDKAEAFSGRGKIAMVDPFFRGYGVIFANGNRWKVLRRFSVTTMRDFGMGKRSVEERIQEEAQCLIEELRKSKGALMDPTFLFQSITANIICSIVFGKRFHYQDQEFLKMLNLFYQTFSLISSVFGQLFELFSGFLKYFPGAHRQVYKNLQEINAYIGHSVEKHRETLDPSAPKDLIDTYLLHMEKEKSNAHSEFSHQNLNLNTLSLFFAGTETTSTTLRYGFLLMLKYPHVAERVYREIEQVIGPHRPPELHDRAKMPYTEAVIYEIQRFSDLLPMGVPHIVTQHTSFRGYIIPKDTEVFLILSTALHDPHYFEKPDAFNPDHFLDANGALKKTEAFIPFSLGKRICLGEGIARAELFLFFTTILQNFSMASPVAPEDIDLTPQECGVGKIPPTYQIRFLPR
From the text: as §1, §2, §3, §4

For a further data set, the target named is OCTN1 (Homo sapiens, UniProt Q9H015). Put plainly: NC-160 substrate interaction, OCTN1. It counts as in vitro ADME. The conditions noted are these: uptake SLC transporter.
From the text: as §1, §2, §3, §4

Data set [3] concerns the target T1, CYP2D6. The data set is described as follows: NC-012 CYP450 inhibition screening, recombinant CYP2D6. The conditions noted are these: 10 μM, fluorogenic substrate, recombinant human CYP. It counts as in vitro ADME.
From the text: as §1, §2, §3, §4

The target of another data set is human OATP1B3 (Homo sapiens, UniProt Q9NPD5). Put plainly: NC-052 OATP1B3 substrate study in transiently transfected HEK293 cells. It counts as in vitro ADME.
Chain of human OATP1B3 (Q9NPD5 whole entry): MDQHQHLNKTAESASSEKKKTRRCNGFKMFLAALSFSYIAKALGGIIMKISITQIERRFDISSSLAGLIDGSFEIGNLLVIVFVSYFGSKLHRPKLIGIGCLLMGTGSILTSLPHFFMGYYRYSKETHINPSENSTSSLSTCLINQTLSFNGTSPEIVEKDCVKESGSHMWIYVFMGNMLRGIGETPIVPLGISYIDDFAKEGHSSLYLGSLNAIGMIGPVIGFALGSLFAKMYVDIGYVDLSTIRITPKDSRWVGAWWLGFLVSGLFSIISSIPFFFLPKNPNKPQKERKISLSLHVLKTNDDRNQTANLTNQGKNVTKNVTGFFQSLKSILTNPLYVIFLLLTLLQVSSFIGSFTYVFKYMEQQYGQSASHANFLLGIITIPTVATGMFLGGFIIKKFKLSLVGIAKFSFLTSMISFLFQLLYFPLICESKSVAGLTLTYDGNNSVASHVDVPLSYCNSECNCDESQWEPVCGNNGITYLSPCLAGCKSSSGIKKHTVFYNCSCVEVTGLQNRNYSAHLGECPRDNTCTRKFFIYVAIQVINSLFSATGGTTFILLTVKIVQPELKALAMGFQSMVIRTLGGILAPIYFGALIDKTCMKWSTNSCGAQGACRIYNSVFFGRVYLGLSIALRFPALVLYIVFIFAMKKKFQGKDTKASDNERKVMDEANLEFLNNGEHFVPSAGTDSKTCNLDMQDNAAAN
From the text: as §1, §2, §3, §4

Data set [4] has as its target T3, CYP2B6. The data set is described as follows: NC-012 CYP450 inhibition screening, recombinant CYP2B6. Conditions: 10 μM, fluorogenic substrate, recombinant human CYP. It counts as in vitro ADME.
From the text: as §1, §2, §3, §4

For another data set, the target named is T4, OCT1 (Homo sapiens, UniProt O15245).
T4 sequence (O15245 1-554): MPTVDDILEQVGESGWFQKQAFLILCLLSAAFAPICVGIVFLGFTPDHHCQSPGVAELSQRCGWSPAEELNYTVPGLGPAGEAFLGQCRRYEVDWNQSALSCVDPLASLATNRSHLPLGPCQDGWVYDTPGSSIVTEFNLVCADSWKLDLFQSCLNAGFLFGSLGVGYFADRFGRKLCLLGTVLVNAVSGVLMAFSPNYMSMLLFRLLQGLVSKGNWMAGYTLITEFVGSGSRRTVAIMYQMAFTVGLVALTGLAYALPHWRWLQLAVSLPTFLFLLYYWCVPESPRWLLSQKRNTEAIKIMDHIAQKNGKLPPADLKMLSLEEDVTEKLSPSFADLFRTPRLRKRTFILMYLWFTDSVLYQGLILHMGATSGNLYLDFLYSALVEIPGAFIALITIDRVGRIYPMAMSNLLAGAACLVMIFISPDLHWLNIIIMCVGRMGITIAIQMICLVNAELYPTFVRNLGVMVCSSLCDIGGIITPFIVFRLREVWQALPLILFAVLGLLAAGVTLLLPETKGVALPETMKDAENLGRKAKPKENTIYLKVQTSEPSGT
The data set is described as follows: NC-160 substrate interaction, OCT1. It counts as in vitro ADME. The conditions noted are these: uptake SLC transporter.
From the text: as §1, §2, §3, §4

Another data set deals with MDR1 (Homo sapiens, UniProt P08183). Put plainly: NC-160 substrate interaction, MDR1. It counts as in vitro ADME. Conditions: efflux (ABC) transporter.
From the text: as §1, §2, §3, §4

Molecules are shown by their SMILES. “Also recorded” adds a separate entry of the source. Numbered stars: 1 amine (or outer) side, 2 acyl side, 3 side chain; on linkers, the order of the positions; unused ones are H or OH. Bridge positions count the residues as written; N and C are the ends. Square brackets hold non-standard residues; d marks the D form. Peptide text beside a SMILES is read from it. * marks the point of attachment. Orn(4R-OH,5R-OCH2CH2NMe3+) = C[N+](C)(C)CCO[C@@H](N[*:3])[C@H](O)C[C@H](N[*:1])C(=O)[*:2]; pTerphenylCO(4''-OnC5H11) = CCCCCOc1ccc(-c2ccc(-c3ccc(C(=O)*)cc3)cc2)cc1; hTyr(3S-OH,4S-OH) = N[C@H](C(=O)O)[C@H](O)[C@@H](O)c1ccc(O)cc1; Pro(3S-OH,4S-Me) = C[C@H]1CN[C@H](C(=O)O)[C@H]1O; Hyp = O=C(O)[C@@H]1C[C@@H](O)CN1 Bounds are passed on as bounds.

Chain of human P-gp (P08183 whole entry): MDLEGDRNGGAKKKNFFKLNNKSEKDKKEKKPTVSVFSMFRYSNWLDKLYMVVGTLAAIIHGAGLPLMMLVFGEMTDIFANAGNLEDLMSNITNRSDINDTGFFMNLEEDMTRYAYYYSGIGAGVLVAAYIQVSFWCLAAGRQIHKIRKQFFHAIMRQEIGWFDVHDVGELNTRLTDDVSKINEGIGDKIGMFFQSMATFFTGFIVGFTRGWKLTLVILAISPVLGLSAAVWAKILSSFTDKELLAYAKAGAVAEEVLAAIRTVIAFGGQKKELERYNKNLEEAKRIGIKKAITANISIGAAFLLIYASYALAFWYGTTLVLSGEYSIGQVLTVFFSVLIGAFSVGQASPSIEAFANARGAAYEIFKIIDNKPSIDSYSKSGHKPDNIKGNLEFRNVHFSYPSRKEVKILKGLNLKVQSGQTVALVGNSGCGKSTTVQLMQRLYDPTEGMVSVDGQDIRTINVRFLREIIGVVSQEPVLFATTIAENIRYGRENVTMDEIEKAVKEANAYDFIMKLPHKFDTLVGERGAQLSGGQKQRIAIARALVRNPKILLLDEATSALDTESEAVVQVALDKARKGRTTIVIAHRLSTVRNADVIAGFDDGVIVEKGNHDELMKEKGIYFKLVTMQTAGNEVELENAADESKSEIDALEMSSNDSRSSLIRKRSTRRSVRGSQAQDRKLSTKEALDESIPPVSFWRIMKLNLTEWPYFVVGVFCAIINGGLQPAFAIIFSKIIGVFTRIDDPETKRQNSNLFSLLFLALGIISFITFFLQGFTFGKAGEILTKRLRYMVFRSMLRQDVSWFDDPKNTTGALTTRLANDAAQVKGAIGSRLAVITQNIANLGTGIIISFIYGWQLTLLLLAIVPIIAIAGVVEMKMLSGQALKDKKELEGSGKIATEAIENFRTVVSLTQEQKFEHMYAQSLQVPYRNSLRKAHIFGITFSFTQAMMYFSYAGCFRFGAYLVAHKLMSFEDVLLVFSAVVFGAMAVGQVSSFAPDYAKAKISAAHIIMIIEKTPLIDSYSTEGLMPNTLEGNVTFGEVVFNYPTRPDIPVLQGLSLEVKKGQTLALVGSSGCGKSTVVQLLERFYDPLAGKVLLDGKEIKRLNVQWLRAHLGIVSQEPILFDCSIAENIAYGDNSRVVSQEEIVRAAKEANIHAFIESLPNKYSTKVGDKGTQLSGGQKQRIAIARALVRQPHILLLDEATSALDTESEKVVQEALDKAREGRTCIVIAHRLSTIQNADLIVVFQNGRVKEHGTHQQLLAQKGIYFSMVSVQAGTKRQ

A word on the inhibition: it is how much of the control response was suppressed. Regarding `CCCCCOc1ccc(-c2ccc(-c3ccc(C(=O)N[C@H]4C[C@@H](O)[C@@H](OCC[N+](C)(C)C)NC(=O)[C@@H]5[C@@H](O)[C@@H](C)CN5C(=O)[C@H]([C@@H](C)O)NC(=O)[C@H]([C@H](O)[C@@H](O)c5ccc(O)cc5)NC(=O)[C@@H]5C[C@@H](O)CN5C(=O)[C@H]([C@@H](C)O)NC4=O)cc3)cc2)cc1` [Rezafungin] ({pTerphenylCO(4''-OnC5H11)}-[Orn(4R-OH,5R-OCH2CH2NMe3+)]T[Hyp][hTyr(3S-OH,4S-OH)]T[Pro(3S-OH,4S-Me)]; lactam 1-C), the “inhibitor of probe substrate transport mediated via OAT3” value against human OAT3 is given as “not”. For the same compound, at human OCT2, the “inhibitor of probe substrate transport mediated via OCT2” value is given as “determined to be an inhibitor”. For the same compound, the “inhibitor of probe substrate transport mediated via P-gp” value against human P-gp is listed as “determined to be an inhibitor; also recorded: could not be ruled out”. On CYP2D6 [1], the “time-dependent inhibitor of CYP2D6” value is reported as “not a time-dependent inhibitor”. Moreover, on CYP2C8, the inhibition at 10 µM stood at 63%. For the same compound, at OCTN2, the “substrate of OCTN2” value was “not a substrate”. In addition, at CYP1A2, the “time-dependent inhibitor of CYP1A2” value was “not a time-dependent inhibitor”. For the same compound, the “time-dependent inhibitor of CYP3A4” value at CYP3A4 is on record as “not a time-dependent inhibitor”. Moreover, the “time-dependent inhibitor of CYP2B6” value on CYP2B6 [2] is recorded as “not a time-dependent inhibitor”. For the same compound, on OCTN1, the “substrate of OCTN1” value is recorded as “not a substrate”. Further, the “inhibition of CYP2D6” value on CYP2D6 [3] is given as “Minimal inhibition”. Also, on human OATP1B3, the “substrate of OATP1B3” value is recorded as “not to be a substrate” and the “uptake ratio, OATP1B3” value is on record as < 2. For the same compound, at CYP2B6 [4], the “inhibition of CYP2B6” value is “Minimal inhibition”. In addition, the “substrate of OCT1” value on OCT1 is “not a substrate”. Moreover, the “substrate of MDR1” value at MDR1 is “not a substrate”.
